Measurements as given in US20250255874A1, “Methods for Treating Immune Thrombocytopenia By Administering (R)-2-[3-[4-Amino-3-(2-Fluoro-4-Phenoxy-Phenyl)Pyrazolo[3,4-D]Pyrimidin-1-YL]Piperidine-1-Carbonyl]-4-Methyl-4-[4-(Oxetan-3-YL)Piperazin-1-YL]Pent-2-Enentrile” (Principia Biopharma Inc., priority 2022, published 2025).
Marks after values point to notes of the source that are not given here.

Test system: patients with relapsed/refractory immune thrombocytopenia
Experiment: Phase 1/2 study (NCT03395210) Part A, safety;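 note: adverse events graded by NCI CTCAE version 4.0, with worsening of pre-existing conditions counted as adverse events, analysed in the Safety Population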
[1] = 45 patients who initiated 400 bid

CC(C)(C=C(C#N)C(=O)N1CCC[C@@H](n2nc(-c3ccc(Oc4ccccc4)cc3F)c3c(N)ncnc32)C1)N1CCN(C2COC2)CC1 [rilzabrutinib, (R)-2-[3-[4-amino-3-(2-fluoro-4-phenoxy-phenyl)pyrazolo[3,4-d]pyrimidin-1-yl]piperidine-1-carbonyl]-4-methyl-4-[4-(oxetan-3-yl)piperazin-1-yl]pent-2-enenitrile]
16 (27) number of patients (percent): Diarrhea, Treatment-Related TEAEs, Grade 1 (Safety Population, N = 60)
30 (50) number of patients (percent): Any TEAE, TEAEs Due to Any Cause, Grade 2 (Safety Population, N = 60)
2 (3) number of patients (percent): Abdominal pain, TEAEs Due to Any Cause, Grade 2 (Safety Population, N = 60) | Abdominal pain, Treatment-Related TEAEs, Any grade (Safety Population, N = 60) | Abdominal pain, Treatment-Related TEAEs, Grade 2 (Safety Population, N = 60) | Alopecia, TEAEs Due to Any Cause, Any grade (Safety Population, N = 60) | Alopecia, TEAEs Due to Any Cause, Grade 1 (Safety Population, N = 60) | Anemia, TEAEs Due to Any Cause, Grade 2 (Safety Population, N = 60) | Anemia, TEAEs Due to Any Cause, Grade 3/4 (Safety Population, N = 60) | Arthralgia, TEAEs Due to Any Cause, Grade 2 (Safety Population, N = 60) | Costochondritis, TEAEs Due to Any Cause, Any grade (Safety Population, N = 60) | Costochondritis, TEAEs Due to Any Cause, Grade 1 (Safety Population, N = 60) | Cough, TEAEs Due to Any Cause, Any grade (Safety Population, N = 60) | Cough, TEAEs Due to Any Cause, Grade 1 (Safety Population, N = 60) | Dizziness, TEAEs Due to Any Cause, Any grade (Safety Population, N = 60) | Dizziness, TEAEs Due to Any Cause, Grade 1 (Safety Population, N = 60) | Dyspnea exertional, TEAEs Due to Any Cause, Any grade (Safety Population, N = 60) | Dyspnea exertional, TEAEs Due to Any Cause, Grade 1 (Safety Population, N = 60) | Dyspnea, TEAEs Due to Any Cause, Any grade (Safety Population, N = 60) | Dyspnea, TEAEs Due to Any Cause, Grade 1 (Safety Population, N = 60) | Edema, TEAEs Due to Any Cause, Any grade (Safety Population, N = 60) | Edema, TEAEs Due to Any Cause, Grade 1 (Safety Population, N = 60) | Epistaxis, TEAEs Due to Any Cause, Any grade (Safety Population, N = 60) | Epistaxis, TEAEs Due to Any Cause, Grade 1 (Safety Population, N = 60)
15 (33) number of patients (percent): All related TEAEs, Treatment-Related TEAEs, Grade 2 (N = 45 initiated 400 mg bid)
5 (8) number of patients (percent): Arthralgia, TEAEs Due to Any Cause, Any grade (Safety Population, N = 60) | Conjunctival hemorrhage, TEAEs Due to Any Cause, Any grade (Safety Population, N = 60) | Conjunctival hemorrhage, TEAEs Due to Any Cause, Grade 1 (Safety Population, N = 60)
12 (20) number of patients (percent): Fatigue, TEAEs Due to Any Cause, Any grade (Safety Population, N = 60)
84%: patients with ≥1 treatment-related, treatment-emergent adverse event (45 patients who initiated 400 mg bid)
27 (45) number of patients (percent): Any TEAE, Treatment-Related TEAEs, Grade 1 (Safety Population, N = 60)
48 (80) number of patients (percent): Any TEAE, TEAEs Due to Any Cause, Any grade (Safety Population, N = 60)
2 (4) number of patients (percent): Nausea, Treatment-Related TEAEs, Grade 2 (N = 45 initiated 400 mg bid) | Vomiting, Treatment-Related TEAEs, Grade 1 (N = 45 initiated 400 mg bid)
52%: patients with ≥1 treatment-related, treatment-emergent adverse event (60 patients who initiated rilzabrutinib at all doses)
4 (7) number of patients (percent): Abdominal distension, Treatment-Related TEAEs, Any grade (Safety Population, N = 60) | Abdominal distension, Treatment-Related TEAEs, Grade 1 (Safety Population, N = 60) | Anemia, TEAEs Due to Any Cause, Any grade (Safety Population, N = 60) | Dyspepsia, TEAEs Due to Any Cause, Any grade (Safety Population, N = 60)
3 (5) number of patients (percent): Abdominal pain, TEAEs Due to Any Cause, Any grade (Safety Population, N = 60) | Arthralgia, TEAEs Due to Any Cause, Grade 1 (Safety Population, N = 60) | Arthropod bite, TEAEs Due to Any Cause, Any grade (Safety Population, N = 60) | Arthropod bite, TEAEs Due to Any Cause, Grade 1 (Safety Population, N = 60) | Contusion, TEAEs Due to Any Cause, Grade 2 (Safety Population, N = 60) | Diarrhea, TEAEs Due to Any Cause, Grade 2 (Safety Population, N = 60) | Diarrhea, Treatment-Related TEAEs, Grade 2 (Safety Population, N = 60) | Dyspepsia, TEAEs Due to Any Cause, Grade 1 (Safety Population, N = 60)
22 (37) number of patients (percent): Diarrhea, TEAEs Due to Any Cause, Any grade (Safety Population, N = 60)
8 (13) number of patients (percent): Back pain, TEAEs Due to Any Cause, Any grade (Safety Population, N = 60)
6 (10) number of patients (percent): Abdominal distension, TEAEs Due to Any Cause, Any grade (Safety Population, N = 60) | Abdominal distension, TEAEs Due to Any Cause, Grade 1 (Safety Population, N = 60)
1 (2) number of patients (percent): Fatigue, Treatment-Related TEAEs, Grade 2 (N = 45 initiated 400 mg bid) | Vomiting, Treatment-Related TEAEs, Grade 2 (N = 45 initiated 400 mg bid) | Abdominal discomfort, TEAEs Due to Any Cause, Any grade (Safety Population, N = 60) | Abdominal discomfort, TEAEs Due to Any Cause, Grade 1 (Safety Population, N = 60) | Abdominal discomfort, Treatment-Related TEAEs, Any grade (Safety Population, N = 60) | Abdominal discomfort, Treatment-Related TEAEs, Grade 1 (Safety Population, N = 60) | Abdominal pain, TEAEs Due to Any Cause, Grade 1 (Safety Population, N = 60) | Abnormal dreams, TEAEs Due to Any Cause, Any grade (Safety Population, N = 60) | Abnormal dreams, TEAEs Due to Any Cause, Grade 1 (Safety Population, N = 60) | Abnormal dreams, Treatment-Related TEAEs, Any grade (Safety Population, N = 60) | Abnormal dreams, Treatment-Related TEAEs, Grade 1 (Safety Population, N = 60) | Akathisia, TEAEs Due to Any Cause, Any grade (Safety Population, N = 60) | Akathisia, TEAEs Due to Any Cause, Grade 1 (Safety Population, N = 60) | Akathisia, Treatment-Related TEAEs, Any grade (Safety Population, N = 60) | Akathisia, Treatment-Related TEAEs, Grade 1 (Safety Population, N = 60) | Back pain, TEAEs Due to Any Cause, Grade 2 (Safety Population, N = 60) | Back pain, Treatment-Related TEAEs, Any grade (Safety Population, N = 60) | Back pain, Treatment-Related TEAEs, Grade 2 (Safety Population, N = 60) | Contusion, TEAEs Due to Any Cause, Grade 3/4 (Safety Population, N = 60) | Contusion, Treatment-Related TEAEs, Any grade (Safety Population, N = 60) | Contusion, Treatment-Related TEAEs, Grade 1 (Safety Population, N = 60) | Decreased appetite, TEAEs Due to Any Cause, Any grade (Safety Population, N = 60) | Decreased appetite, TEAEs Due to Any Cause, Grade 1 (Safety Population, N = 60) | Decreased appetite, Treatment-Related TEAEs, Any grade (Safety Population, N = 60) | Decreased appetite, Treatment-Related TEAEs, Grade 1 (Safety Population, N = 60) | Defecation urgency, TEAEs Due to Any Cause, Any grade (Safety Population, N = 60) | Defecation urgency, TEAEs Due to Any Cause, Grade 2 (Safety Population, N = 60) | Defecation urgency, Treatment-Related TEAEs, Any grade (Safety Population, N = 60) | Defecation urgency, Treatment-Related TEAEs, Grade 2 (Safety Population, N = 60) | Dyspepsia, TEAEs Due to Any Cause, Grade 2 (Safety Population, N = 60) | Dyspepsia, Treatment-Related TEAEs, Any grade (Safety Population, N = 60) | Dyspepsia, Treatment-Related TEAEs, Grade 1 (Safety Population, N = 60) | Edema, Treatment-Related TEAEs, Any grade (Safety Population, N = 60) | Edema, Treatment-Related TEAEs, Grade 1 (Safety Population, N = 60) | Epigastric discomfort, TEAEs Due to Any Cause, Any grade (Safety Population, N = 60) | Epigastric discomfort, TEAEs Due to Any Cause, Grade 2 (Safety Population, N = 60) | Epigastric discomfort, Treatment-Related TEAEs, Any grade (Safety Population, N = 60) | Epigastric discomfort, Treatment-Related TEAEs, Grade 2 (Safety Population, N = 60) | Erysipelas, TEAEs Due to Any Cause, Any grade (Safety Population, N = 60) | Erysipelas, TEAEs Due to Any Cause, Grade 2 (Safety Population, N = 60) | Erysipelas, Treatment-Related TEAEs, Any grade (Safety Population, N = 60) | Erysipelas, Treatment-Related TEAEs, Grade 2 (Safety Population, N = 60)
19 (32) number of patients (percent): Diarrhea, TEAEs Due to Any Cause, Grade 1 (Safety Population, N = 60) | Diarrhea, Treatment-Related TEAEs, Any grade (Safety Population, N = 60)
15 (25) number of patients (percent): Any TEAE, Treatment-Related TEAEs, Grade 2 (Safety Population, N = 60)
13 (29) number of patients (percent): Diarrhea, Treatment-Related TEAEs, Grade 1 (N = 45 initiated 400 mg bid)
36%: treatment-related any-grade TEAE: diarrhea [1]
43 (72) number of patients (percent): Any TEAE, TEAEs Due to Any Cause, Grade 1 (Safety Population, N = 60)
9%: treatment-related any-grade TEAE: fatigue [1]
3 (7) number of patients (percent): Diarrhea, Treatment-Related TEAEs, Grade 2 (N = 45 initiated 400 mg bid) | Fatigue, Treatment-Related TEAEs, Grade 1 (N = 45 initiated 400 mg bid)
10 (17) number of patients (percent): Fatigue, TEAEs Due to Any Cause, Grade 1 (Safety Population, N = 60)
11 (18) number of patients (percent): Contusion, TEAEs Due to Any Cause, Any grade (Safety Population, N = 60)
31%: treatment-related any-grade TEAE: nausea [1]
23 (51) number of patients (percent): All related TEAEs, Treatment-Related TEAEs, Grade 1 (N = 45 initiated 400 mg bid)
31 (52) number of patients (percent): Any TEAE, Treatment-Related TEAEs, Any grade (Safety Population, N = 60)
8 (13)^† number of patients (percent): Any TEAE, TEAEs Due to Any Cause, Grade 3/4 (Safety Population, N = 60)
7 (12) number of patients (percent): Back pain, TEAEs Due to Any Cause, Grade 1 (Safety Population, N = 60) | Contusion, TEAEs Due to Any Cause, Grade 1 (Safety Population, N = 60)
12 (27) number of patients (percent): Nausea, Treatment-Related TEAEs, Grade 1 (N = 45 initiated 400 mg bid)
